Experimental data reported in ChEMBL document CHEMBL3272213, “Synthesis and pharmacology of novel anxiolytic agents derived from 2-[(dialkylamino)methyl-4H-triazol-4-yl] benzophenones and related heterocyclic benzophenones” (1976).

Experiments:
Assay type in all cases: functional
Mus musculus [1] = experiment: Anxiolytic activity in ip dosed male albino CF-1 mouse assessed as inhibition of electroshock-induced convulsions; conditions: CF-1, ip
Mus musculus [2] = experiment: Anxiolytic activity in ip dosed male albino CF-1 mouse assessed as inhibition of nicotine-induced death
Mus musculus [3] = experiment: Anxiolytic activity in ip dosed male albino CF-1 mouse assessed as decrease in traction reflex
Mus musculus [4] = experiment: Potentiation of ethanol-induced anxiolytic activity in ip dosed male albino CF-1 mouse; conditions: CF-1, ip
Mus musculus [5] = experiment: Anxiolytic activity in ip dosed male albino CF-1 mouse assessed as inhibition of strychnine-induced lethality; conditions: CF-1, ip
Mus musculus [6] = experiment: Anxiolytic activity in ip dosed male albino CF-1 mouse assessed as inhibition of thiosemicarbazide -induced lethality; conditions: CF-1, ip
Mus musculus [7] = experiment: Anxiolytic activity in ip dosed male albino CF-1 mouse assessed as decrease in dish reflex
Mus musculus [8] = experiment: Anxiolytic activity in ip dosed male albino CF-1 mouse assessed as inhibition of nicotine-induced tonic extensor convulsions
Mus musculus [9] = experiment: Anxiolytic activity in ip dosed male albino CF-1 mouse assessed as inhibition of pentylenetetrazole-induced clonic convulsions; conditions: CF-1, ip
[10] = Mus musculus, CF-1, ip, read-out: ED50

Structure (SMILES) | ED50 (Mus musculus [1]) [mg/kg] | ED50 (Mus musculus [2]; [10]) [mg/kg] | ED50 (Mus musculus [3]; [10]) [mg/kg] | ED50 (Mus musculus [4]) [mg/kg] | ED50 (Mus musculus [5]) [mg/kg] | ED50 (Mus musculus [6]) [mg/kg] | ED50 (Mus musculus [7]; [10]) [mg/kg] | ED50 (Mus musculus [8]; [10]) [mg/kg] | ED50 (Mus musculus [9]) [mg/kg] | ED50 (Mus musculus [2]) [mg/kg] | ED50 (Mus musculus [3]) [mg/kg] | ED50 (Mus musculus [7]) [mg/kg] | ED50 (Mus musculus [8]) [mg/kg]
Cc1nnc2n1-c1ccc(Cl)cc1C(c1ccccc1Cl)=NC2 [TRIAZOLAM] | 32 | 0.014 | 0.6 | 0.63 | 0.23 | 0.028 | 0.028 | 0.013 | 0.03 |  |  |  | 
CNCc1nnc(C)n1-c1ccc(Cl)cc1C(=O)c1ccccc1 | 63 | 0.1 | 2.5 | 2 | 3.2 | 0.3 | 0.8 | 0.1 | 1.1 |  |  |  | 
Cc1nnc(CN2CCCC2)n1-c1ccc(Cl)cc1C(O)c1ccccc1 (stereo in doubt; 21) |  |  |  |  |  |  |  |  | 14 | 32 | >200 | 5 | 32
Cc1nnc(CN2CCCC2)n1-c1ccc(Cl)cc1C(=O)c1ccccc1 | 89 | 0.4 | 4 | 1.8 | 4 | 2 | 1.3 | 0.4 | 2 |  |  |  | 
Cc1nc(CN(C)C)n(-c2ccc(Cl)cc2C(=O)c2ccccc2Cl)c1CO | 100 | 1 | 18 | 18 | > 25 | 2 | 3.5 | 1 | 1.8 |  |  |  | 
Cc1nnc(CN(C)C)n1-c1ccc(Cl)cc1C(=O)c1ccccc1Cl | 50 | 0.14 | 3.2 | 0.63 | 11 | 0.02 | 0.25 | 0.14 | 0.28 |  |  |  | 
Cc1nnc(CN(C)C)n1-c1ccccc1C(=O)c1ccccc1Cl | > 100 | 5 | > 100 | > 100 | > 50 | 3.6 | 22 | 5 | 7 |  |  |  | 
CN1C(=O)CN=C(c2ccccc2)c2cc(Cl)ccc21 [DIAZEPAM] | 20 | 0.11 | 5 | 1 | 3.6 | 0.2 | 0.31 | 0.11 | 0.8 |  |  |  | 
NCC(=O)Nc1ccc(Cl)cc1C(=O)c1ccccc1 | 29 | 0.25 | 32 | 2.5 | 22 | 1.6 | 5.6 | 0.25 |  |  |  |  | 
Cc1nnc2n1-c1ccc(Cl)cc1C(c1ccccc1)=NC2 [ALPRAZOLAM] | 25.5 | 0.02 | 0.6 | 0.16 | 0.3 | 0.16 | 0.056 | 0.02 | 0.2 |  |  |  | 
CN(C)Cc1nccn1-c1ccc(Cl)cc1C(=O)c1ccccc1Cl |  | 1.2 | 11 | 2.5 | > 50 | 1.1 | 2.2 | 1 | 1.8 |  |  |  | 
Cc1nnc(CN(C)C)n1-c1ccc(Cl)cc1C(=O)c1ccccc1 | 45 | 0.5 | 5 | 1.1 | 5 | 0.3 | 2.2 | 0.5 | 1.1 |  |  |  | 
CNCc1nn(C)c(=O)n1-c1ccc(Cl)cc1C(=O)c1ccccc1.Cl |  | 0.56 | 12.5 |  |  |  | 4 | 0.45 | 5.6 |  |  |  | 
Cc1nnc(CN2CCCC2)n1-c1ccc(Cl)cc1C(O)c1ccccc1 (stereo in doubt; 20) |  |  |  |  |  |  |  |  |  | 8 | >25 | 16 | 8
Cc1nnc(CN)n1-c1ccc(Cl)cc1C(O)c1ccccc1 (stereo not given) | 71 | 1.6 | 9 | 3.1 | 28 | 1.2 | 2.8 | 1.6 | 4 |  |  |  | 
Cc1nnc(CN2CCOCC2)n1-c1ccc(Cl)cc1C(=O)c1ccccc1 | > 50 | 0.5 | 5 | 4.4 | 6.3 | 0.8 | 1.8 | 0.45 | 1.8 |  |  |  | 
CN(C)Cc1nnc(C2CC2)n1-c1ccc(Cl)cc1C(=O)c1ccccc1Cl | 79 | 0.6 | 7.1 | 2.2 | 5 | 0.4 | 1.1 | 0.6 | 1 |  |  |  | 
CCNCc1nnc(C)n1-c1ccc(Cl)cc1C(=O)c1ccccc1 | 45 | 0.2 | 2.5 | 0.6 | 45 | 0.6 | 1 | 0.2 | 0.5 |  |  |  | 
CN(C)Cc1nnc(-c2ccco2)n1-c1ccc(Cl)cc1C(=O)c1ccccc1 | > 100 | 16 | 71 | 25 | 45 | 8 | 28 | 16 | 23 |  |  |  | 
Cc1nnc(CN2CCCC2)n1-c1ccc(Cl)cc1C(=O)c1ccccc1Cl | > 100 | 1.8 | 18 | 6 | 1 | 1.1 | 1 | 1.3 | 4 |  |  |  | 
Cc1nnc(CN2CCCC2)n1-c1ccc(Cl)cc1Cc1ccccc1 |  | 36 | > 100 |  |  |  | 40 | 36 | > 100 |  |  |  | 
CN(C)Cc1nn(CO)c(=O)n1-c1ccc(Cl)cc1C(=O)c1ccccc1Cl | > 100 | 0.13 | 6.3 | 2 | 12.5 | 0.23 | 1 | 0.13 | 0.32 |  |  |  | 
CN(C)Cc1nnc(-c2ccncc2)n1-c1ccc(Cl)cc1C(=O)c1ccccc1Cl | > 100 | 11 | > 100 |  | > 50 | 4.4 | 20 | 11 |  |  |  |  | 
CCN(CC)CC(=O)Nc1ccc(Cl)cc1C(=O)c1ccccc1 |  | 28 | > 200 |  |  |  | 100 | 23 | 140 |  |  |  | 
CN(C)CCn1nc(CN(C)C)n(-c2ccc(Cl)cc2C(=O)c2ccccc2)c1=O | > 100 | 6.3 | 100 | 80 | > 100 | 9 | 28 | 6.3 | 18 |  |  |  | 
